Source: the NIST ThermoML archive (doi:10.1016/j.jct.2012.05.003)

Conditions: for molar entropy: Vacuum adiabatic calorimetry

O=C1c2ccccc2-c2ccccc21 [9(9H)-fluorenone]
Conditions	molar entropy [J/K/mol]	vapor or sublimation pressure [kPa]
5 K, 101.33 kPa, Crystal	0.2	–
10 K, 101.33 kPa, Crystal	1.47	–
20 K, 101.33 kPa, Crystal	7.81	–
30 K, 101.33 kPa, Crystal	16.59	–
40 K, 101.33 kPa, Crystal	26.02	–
50 K, 101.33 kPa, Crystal	35.44	–
60 K, 101.33 kPa, Crystal	44.68	–
70 K, 101.33 kPa, Crystal	53.57	–
80 K, 101.33 kPa, Crystal	62.15	–
90 K, 101.33 kPa, Crystal	70.45	–
100 K, 101.33 kPa, Crystal	78.48	–
120 K, 101.33 kPa, Crystal	93.91	–
140 K, 101.33 kPa, Crystal	108.7	–
160 K, 101.33 kPa, Crystal	123.08	–
180 K, 101.33 kPa, Crystal	137.18	–
200 K, 101.33 kPa, Crystal	151.1	–
220 K, 101.33 kPa, Crystal	164.93	–
240 K, 101.33 kPa, Crystal	178.73	–
260 K, 101.33 kPa, Crystal	192.51	–
280 K, 101.33 kPa, Crystal	206.3	–
298.15 K, 101.33 kPa, Crystal	218.82	–
300 K, 101.33 kPa, Crystal	220.1	–
320 K, 101.33 kPa, Crystal	233.91	–
340 K, 101.33 kPa, Crystal	247.73	–
340 K, 101.33 kPa, Liquid	291.47	–
356.52 K, 101.33 kPa, Crystal	259.19	–
356.52 K, 101.33 kPa, Liquid	305.07	–
360 K, 101.33 kPa, Liquid	307.89	–
368.12 K, Liquid, Inclined piston gauge	–	0.0161
378.12 K, Liquid, Inclined piston gauge	–	0.0308
380 K, 101.33 kPa, Liquid	323.92	–
388.12 K, Liquid, Inclined piston gauge	–	0.0562
398.12 K, Liquid, Inclined piston gauge	–	0.0987
400 K, 101.33 kPa, Liquid	339.6	–
408.12 K, Liquid, Inclined piston gauge	–	0.1672
418.12 K, Liquid, Inclined piston gauge	–	0.2744
420 K, 101.33 kPa, Liquid	354.94	–
428.11 K, Liquid, Inclined piston gauge	–	0.4382
438.11 K, Liquid, Inclined piston gauge	–	0.6825
440 K, 101.33 kPa, Liquid	369.98	–
448.11 K, Liquid, Inclined piston gauge	–	1.038
458.11 K, Liquid, Inclined piston gauge	–	1.544
460 K, 101.33 kPa, Liquid	384.73	–
464.96 K, Liquid, Twin ebulliometer	–	2
468.11 K, Liquid, Inclined piston gauge	–	2.25
472.82 K, Liquid, Twin ebulliometer	–	2.666
478.11 K, Liquid, Inclined piston gauge	–	3.216
480 K, 101.33 kPa, Liquid	399.2	–
483.11 K, Liquid, Inclined piston gauge	–	3.821
493.2 K, Liquid, Twin ebulliometer	–	5.333
500 K, 101.33 kPa, Liquid	413.42	–
506.16 K, Liquid, Twin ebulliometer	–	7.999
515.86 K, Liquid, Twin ebulliometer	–	10.67
520 K, 101.33 kPa, Liquid	427.39	–
523.7 K, Liquid, Twin ebulliometer	–	13.33
531.86 K, Liquid, Twin ebulliometer	–	16.66
538.62 K, Liquid, Twin ebulliometer	–	19.93
547.52 K, Liquid, Twin ebulliometer	–	25.02
547.53 K, Liquid, Twin ebulliometer	–	25.02
556.48 K, Liquid, Twin ebulliometer	–	31.17
565.49 K, Liquid, Twin ebulliometer	–	38.56
574.56 K, Liquid, Twin ebulliometer	–	47.37
583.67 K, Liquid, Twin ebulliometer	–	57.81
592.85 K, Liquid, Twin ebulliometer	–	70.11
602.07 K, Liquid, Twin ebulliometer	–	84.53
611.34 K, Liquid, Twin ebulliometer	–	101.32
620.67 K, Liquid, Twin ebulliometer	–	120.78
630.05 K, Liquid, Twin ebulliometer	–	143.23
639.47 K, Liquid, Twin ebulliometer	–	169
648.95 K, Liquid, Twin ebulliometer	–	198.46
658.48 K, Liquid, Twin ebulliometer	–	231.99
668.07 K, Liquid, Twin ebulliometer	–	269.98

Conditions	mass density [kg/m3]
373 K, 101.33 kPa, Liquid, Pycnometric method	1090

Conditions	Triple point temperature [K]
Crystal, Adiabatic calorimetry	356.52
